According to patent publication US10029986B2, “Alkynyl pyridine-substituted amide compound and pesticide” (NISSAN CHEMICAL INDUSTRIES, LTD., priority 2014, dated 2018):

Tests used:
[1] = system: Botrytis cinerea; assay: Test on the preventive effect against cucumber gray mold (spore inoculation); type: in vivo; conditions: 72 h, test solution A 500 ppm, 5 ml per pot, cucumber cut leaves, conidium inoculation, 3 days at 20° C.
Procedure, shortened: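 Cotyledon-stage cucumber (Sagami Hanjiro) sprayed with 500 ppm compound from emulsifiable concentrate; detached treated leaves inoculated with B. cinerea conidia in PDA (1:1). After 3 days at 20 °C, humid, lesion proportion gave control value; duplicate test.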

[2] = system: Southern root-knot nematode (Meloidogyne incognita); assay: Test on the preventive effect against Southern root-knot nematode (garden balsam seedlings); type: in vivo; conditions: 504 h, test solution B 100 ppm, 1 ml per seedling to base of garden balsam seedlings, 3 weeks in greenhouse, read-out: efficacy (root knot damage degree relative to non-treated plot)
Procedure: Compounds of the present invention were dissolved in dimethyl sulfoxide to prepare 1 wt % solutions. Then, distilled water was added to dilute the solutions to the prescribed concentration (100 ppm), and the obtained solutions were used in the following the Test Examples 9 to 12. 1 ml per seedling of test solution B of the compounds of the present invention was treated to the bases of garden balsam seedlings (about 2 weeks after budding) planted in a cell tray of which each cell was filled with 10 g of soil. 1 hour after the application, 1 ml per cell of water containing Southern root-knot nematode (Meloidogyne incognita) 2 L larvae (100 larvae of 2 L/1 ml) was applied to the base. The tray was placed in a greenhouse for 3 weeks, and the degree of root knot on the root was determined in accordance with the following damage index and the damage degree to calculate the efficacy (%) relative to the non-treated plot in accordance with the following formula. • 0: No knot formation was observed. • 1: Knot formations were observed on parts of the root system. • 2: Knot formations were observed on the entire root system. • 3: Large knot formations were observed. • 4: Large knot formations were observed on the entire root system. [Damage degree]=[Σ(damage index×number of each damaged indexed seedling)/(4×number of seedlings investigated)]×100 Efficacy (%)=[1−(damage degree in treated plot/damage degree in non-treated plot)]×100

[3] = system: Phaeosphaeria nodorum (Synonym: Septoria nodorum); assay: Test on the preventive effect against wheat glume blotch; type: in vivo; conditions: Parastagonospora nodorum, 144 h; test solution A 500 ppm, 5 ml per pot, wheat 1.3-leaf stage, 2 days inoculation chamber then 6 days at 20° C.
Procedure, shortened: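 Wheat (cv. Haruyutaka) at 1.3-leaf stage sprayed with compound at 500 ppm as diluted emulsifiable concentrate, then inoculated one day later with conidial suspension. Kept 2 days at 20° C and 100% RH, then 6 days in a greenhouse at 20° C. Control value derived from lesion proportion on inoculated leaves; duplicate.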

[4] = system: Southern root-knot nematode (Meloidogyne incoqnita); assay: Insecticidal test against Southern root-knot nematode (eggs, 96 well plate); type: in vivo; conditions: 96 h, test solution B 100 ppm, 10 μl per well, 25° C. dark, 4 days after treatment, read-out: efficacy (unhatched eggs + inactive larvae relative to non-treated)
Procedure: Compounds of the present invention were dissolved in dimethyl sulfoxide to prepare 1 wt % solutions. Then, distilled water was added to dilute the solutions to the prescribed concentration (100 ppm), and the obtained solutions were used in the following the Test Examples 9 to 12. 60 μl of a potato dextrose 1% agar medium was added to each well of a 96 well plate, and 30 μl of sterilized water containing eggs of Southern root-knot nematode (Meloidogyne incoqnita) (10 eggs/3 μl) was added to each well. Further, 10 μl per well of test solution B of the compounds of the present invention was added, and the plate was left at rest at 25° C. under dark conditions.

CC(CNC(=O)c1ccccc1C(F)(F)F)c1ncc(C#CC2CC2)cc1Cl (stereo not shown) [1-007, N-[2-[3-chloro-5-(cyclopropylethynyl)pyridin-2-yl]propyl]-2-(trifluoromethyl)benzamide]
pest or weed control at 500 µg/mL [1]: ≥ 70%
pest or weed control at 100 µg/mL [2]: ≥ 50%
pest or weed control at 500 µg/mL [3]: ≥ 70%
pest or weed control at 100 µg/mL [4]: ≥ 50%

Cn1cc(C(=O)NCCc2ncc(C#CC3CC3)cc2Cl)c(C(F)F)n1 [8-001]
pest or weed control at 500 µg/mL [1]: ≥ 70%
pest or weed control at 100 µg/mL [2]: ≥ 50%
pest or weed control at 500 µg/mL [3]: ≥ 70%
pest or weed control at 100 µg/mL [4]: ≥ 50%
melting point: 96 to 98 °C

Cn1cc(C(=O)NCCc2ncc(C#CC(C)(C)C)cc2Cl)c(C(F)F)n1 [8-002]
pest or weed control at 500 µg/mL [1]: ≥ 70%
pest or weed control at 100 µg/mL [2]: ≥ 50%
pest or weed control at 500 µg/mL [3]: ≥ 70%

CC(CNC(=O)c1cccnc1Cl)c1ncc(C#CC2CC2)cc1Cl (stereo not shown) [3-005]
pest or weed control at 500 µg/mL [1]: ≥ 70%
pest or weed control at 100 µg/mL [2]: ≥ 50%
pest or weed control at 500 µg/mL [3]: ≥ 70%
pest or weed control at 100 µg/mL [4]: ≥ 50%

C=C(CNC(=O)c1ccccc1C(F)(F)F)c1ncc(C#CC)cc1Cl [1-012, N-[2-[3-chloro-5-(1-propynyl)pyridin-2-yl]-2-propenyl]-2-(trifluoromethyl)benzamide]
pest or weed control at 500 µg/mL [1]: ≥ 70%
pest or weed control at 100 µg/mL [2]: ≥ 50%
pest or weed control at 500 µg/mL [3]: ≥ 70%
pest or weed control at 100 µg/mL [4]: ≥ 50%
melting point: 85 to 90 °C

CSC(CNC(=O)c1ccccc1C(F)(F)F)c1ncc(C#CC2CC2)cc1Cl (stereo not shown) [1-021]
pest or weed control at 500 µg/mL [1]: ≥ 70%
pest or weed control at 500 µg/mL [3]: ≥ 70%
pest or weed control at 100 µg/mL [4]: ≥ 50%

COC(c1ncc(C#CC(C)(C)C)cc1Cl)C(C)NC(=O)c1ccccc1C(F)(F)F (stereo not shown) [1-025]
pest or weed control at 500 µg/mL [1]: ≥ 70%
pest or weed control at 100 µg/mL [2]: ≥ 50%
pest or weed control at 500 µg/mL [3]: ≥ 70%
pest or weed control at 100 µg/mL [4]: ≥ 50%
melting point: 36 to 38 °C

CC(CNC(=O)c1cn(C)nc1C(F)F)c1ncc(C#CC2CC2)cc1Cl (stereo not shown) [8-007]
pest or weed control at 500 µg/mL [1]: ≥ 70%
pest or weed control at 100 µg/mL [2]: ≥ 50%
pest or weed control at 500 µg/mL [3]: ≥ 70%
pest or weed control at 100 µg/mL [4]: ≥ 50%

COC(CNC(=O)c1cn(C)nc1C(F)F)c1ncc(C#CC2CC2)cc1Cl (stereo not shown) [8-019]
pest or weed control at 500 µg/mL [1]: ≥ 70%
pest or weed control at 100 µg/mL [2]: ≥ 50%
pest or weed control at 500 µg/mL [3]: ≥ 70%
pest or weed control at 100 µg/mL [4]: ≥ 50%
melting point: 110 to 111 °C

COC(c1ncc(C#CC2CC2)cc1Cl)C(C)NC(=O)c1nccnc1C(F)(F)F (stereo not shown) [4-004]
pest or weed control at 500 µg/mL [1]: ≥ 70%
pest or weed control at 500 µg/mL [3]: ≥ 70%

O=C(NCCc1ncc(C#CC2CC2)cc1Cl)c1cccnc1C(F)F [3-001, N-[2-[3-chloro-5-(cyclopropylethynyl)pyridin-2-yl]ethyl]-2-(difluoromethyl)nicotinamide]
pest or weed control at 500 µg/mL [1]: ≥ 70%
pest or weed control at 100 µg/mL [2]: ≥ 50%
pest or weed control at 500 µg/mL [3]: ≥ 70%
pest or weed control at 100 µg/mL [4]: ≥ 50%
melting point: 114 to 117 °C

CC(C)(C)C#Cc1cnc(CCNC(=O)c2ccccc2C(F)(F)F)c(Cl)c1 [1-003, N-[2-[3-chloro-5-(3,3-dimethyl-1-butynyl)pyridin-2-yl]ethyl]-2-(trifluoromethyl)benzamide]
pest or weed control at 500 µg/mL [1]: ≥ 70%
pest or weed control at 100 µg/mL [2]: ≥ 50%
pest or weed control at 500 µg/mL [3]: ≥ 70%
pest or weed control at 100 µg/mL [4]: ≥ 50%
melting point: 90 to 92 °C

Cn1cc(C(=O)NCC2(c3ncc(C#CC4CC4)cc3Cl)CC2)c(C(F)F)n1 [8-018, N-[[1-[3-chloro-5-(cyclopropylethynyl)pyridin-2-yl]cyclopropyl]methyl]-3-difluoromethyl-1-methyl-1H-pyrazole-4-carboxamide]
pest or weed control at 500 µg/mL [1]: ≥ 70%
pest or weed control at 500 µg/mL [3]: ≥ 70%
pest or weed control at 100 µg/mL [4]: ≥ 50%

CC(C)(CNC(=O)c1cccnc1C(F)F)c1ncc(C#CC2CC2)cc1Cl [3-007, N-[2-[3-chloro-5-(cyclopropylethynyl)pyridin-2-yl]-2-methylpropyl]-2-(difluoromethyl)nicotinamide]
pest or weed control at 500 µg/mL [1]: ≥ 70%
pest or weed control at 500 µg/mL [3]: ≥ 70%
pest or weed control at 100 µg/mL [4]: ≥ 50%

CC(C)(CNC(=O)c1ccccc1C(F)(F)F)c1ncc(C#CC2CC2)cc1Cl [1-008]
pest or weed control at 500 µg/mL [1]: ≥ 70%
pest or weed control at 500 µg/mL [3]: ≥ 70%
pest or weed control at 100 µg/mL [4]: ≥ 50%

O=C(NCC(c1ncc(C#CC2CC2)cc1Cl)C1CC1)c1ccccc1C(F)(F)F (stereo not shown) [1-009]
pest or weed control at 500 µg/mL [1]: ≥ 70%
pest or weed control at 100 µg/mL [2]: ≥ 50%
pest or weed control at 500 µg/mL [3]: ≥ 70%
pest or weed control at 100 µg/mL [4]: ≥ 50%

COC(c1ncc(C#CC2CC2)cc1Cl)C(C)NC(=O)c1cccnc1C(F)F (stereo not shown) [3-021]
pest or weed control at 500 µg/mL [1]: ≥ 70%
pest or weed control at 100 µg/mL [2]: ≥ 50%
pest or weed control at 500 µg/mL [3]: ≥ 70%
pest or weed control at 100 µg/mL [4]: ≥ 50%

COC(c1ncc(C#CC2CC2)cc1Cl)C(C)NC(=O)c1cn(C)nc1C(F)F (stereo not shown) [8-028, N-[2-[3-chloro-5-(cyclopropylethynyl)pyridin-2-yl]-2-methoxy-1-methylethyl]-3-difluoromethyl-1-methyl-1H-pyrazole-4-carboxamide]
pest or weed control at 500 µg/mL [1]: ≥ 70%
pest or weed control at 100 µg/mL [2]: ≥ 50%
pest or weed control at 500 µg/mL [3]: ≥ 70%
pest or weed control at 100 µg/mL [4]: ≥ 50%

COC(c1ncc(C#CC2CC2)cc1Cl)C(C)NC(=O)c1ccccc1C(F)(F)F (stereo not shown) [1-024]
pest or weed control at 500 µg/mL [1]: ≥ 70%
pest or weed control at 100 µg/mL [2]: ≥ 50%
pest or weed control at 500 µg/mL [3]: ≥ 70%
pest or weed control at 100 µg/mL [4]: ≥ 50%

Cn1cc(C(=O)NCC(C)(C)c2ncc(C#CC3CC3)cc2Cl)c(C(F)F)n1 [8-008]
pest or weed control at 500 µg/mL [1]: ≥ 70%
pest or weed control at 500 µg/mL [3]: ≥ 70%
pest or weed control at 100 µg/mL [4]: ≥ 50%

COC(c1ncc(C#CC2CC2)cc1Cl)C(C)NC(=O)c1sc(C)nc1C(F)F (stereo not shown) [9-006a]
pest or weed control at 500 µg/mL [1]: ≥ 70%
pest or weed control at 100 µg/mL [2]: ≥ 50%
pest or weed control at 500 µg/mL [3]: ≥ 70%
pest or weed control at 100 µg/mL [4]: ≥ 50%

C=C(CNC(=O)c1cn(C)nc1C(F)F)c1ncc(C#CC2CC2)cc1Cl [8-011, N-[2-[3-chloro-5-(cyclopropylethynyl)pyridin-2-yl]-2-propenyl]-3-difluoromethyl-1-methyl-1H-pyrazole-4-carboxamide]
pest or weed control at 500 µg/mL [1]: ≥ 70%
pest or weed control at 500 µg/mL [3]: ≥ 70%
pest or weed control at 100 µg/mL [4]: ≥ 50%
melting point: 66 to 70 °C

CC(NC(=O)c1ccccc1C(F)(F)F)C(OCc1ccccc1)c1ncc(C#CC2CC2)cc1Cl (stereo not shown) [1-031, N-[2-benzyloxy-2-[3-chloro-5-(cyclopropylethynyl)pyridin-2-yl]-1-methylethyl]-2-(trifluoromethyl)benzamide]
pest or weed control at 500 µg/mL [1]: ≥ 70%
pest or weed control at 500 µg/mL [3]: ≥ 70%
pest or weed control at 100 µg/mL [4]: ≥ 50%

COC(=O)C(CNC(=O)c1cn(C)nc1C(F)F)c1ncc(C#CC2CC2)cc1Cl (stereo not shown) [8-022, 2-[3-chloro-5-(cyclopropylethynyl)pyridin-2-yl]-3-(3-difluoromethyl-1-methyl-1H-pyrazole-4-carboxamide)propionic acid methyl ester]
pest or weed control at 500 µg/mL [1]: ≥ 70%
pest or weed control at 500 µg/mL [3]: ≥ 70%
